Results published in the supplement of paper PMC10307832.

Tests used:
Assay in all cases: relative viability (nuclei count vs DMSO), 5 days (fraction); higher = more cells survive
ALW-II-49-7 + Trametinib = compound: Cc1ccc(C(=O)Nc2cccc(C(F)(F)F)c2)cc1Nc1cncc(C(N)=O)c1 [ALW-II-49-7] + CC(=O)Nc1cccc(-n2c(=O)n(C3CC3)c(=O)c3c(Nc4ccc(I)cc4F)n(C)c(=O)c(C)c32)c1 [Trametinib] (partner 0.02 µM)
Method in brief: (§1)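 A single step with final 0.05% Triton X-100, 1% formaldehyde and 1 ug/ml Hoechst fixed the cells and stained nuclei 5 days after treatment. Lung cancer cell lines in 1536-well plates had been treated by pin tool the day after seeding with one drug alone or a fixed anchor-drug dose plus five library-drug doses (not always all listed) in √10 steps, and nuclei were counted on 4× images. Relative viability is the ratio of nuclei in treated wells to nuclei in vehicle wells, taken as the median of duplicate plates.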

XMD13-2 + Navitoclax = compound: C1CC1C(=O)NC2=NNC3=C2C=CC(=C3)C4=CC(=CC=C4)C(=O)NC5CC5 [XMD13-2] + CC1(C)CCC(c2ccc(Cl)cc2)=C(CN2CCN(c3ccc(C(=O)NS(=O)(=O)c4ccc(N[C@H](CCN5CCOCC5)CSc5ccccc5)c(S(=O)(=O)C(F)(F)F)c4)cc3)CC2)C1 [Navitoclax] (partner 0.5 µM)
Method in brief: as §1

XMD13-2 + OSI-027 = compound: C1CC1C(=O)NC2=NNC3=C2C=CC(=C3)C4=CC(=CC=C4)C(=O)NC5CC5 [XMD13-2] + COc1cccc2cc(-c3nc([C@H]4CC[C@H](C(=O)O)CC4)n4ncnc(N)c34)[nH]c12 [OSI-027] (partner 0.5 µM)
Method in brief: as §1

ALW-II-49-7 + Luminespib = compound: Cc1ccc(C(=O)Nc2cccc(C(F)(F)F)c2)cc1Nc1cncc(C(N)=O)c1 [ALW-II-49-7] + CCNC(=O)c1noc(-c2cc(C(C)C)c(O)cc2O)c1-c1ccc(CN2CCOCC2)cc1 [Luminespib] (partner 0.01 µM)
Method in brief: as §1

## UMC-11
ALW-II-49-7 + Trametinib; first compound 0.08 µM
  relative viability: 0.791
ALW-II-49-7 + Trametinib; first compound 0.253 µM
  relative viability: 0.69
ALW-II-49-7 + Trametinib; first compound 0.8 µM
  relative viability: 0.896
ALW-II-49-7 + Trametinib; first compound 2.53 µM
  relative viability: 0.821
ALW-II-49-7 + Trametinib; first compound 8 µM
  relative viability: 0.599
XMD13-2 + Navitoclax; first compound 0.05 µM
  relative viability: 0.347
XMD13-2 + Navitoclax; first compound 0.1581 µM
  relative viability: 0.284
XMD13-2 + Navitoclax; first compound 0.5 µM
  relative viability: 0.309
XMD13-2 + Navitoclax; first compound 1.581 µM
  relative viability: 0.344
XMD13-2 + Navitoclax; first compound 5 µM
  relative viability: 0.265
XMD13-2 + OSI-027; first compound 0.05 µM
  relative viability: 0.438
XMD13-2 + OSI-027; first compound 0.1581 µM
  relative viability: 0.404
XMD13-2 + OSI-027; first compound 0.5 µM
  relative viability: 0.474
XMD13-2 + OSI-027; first compound 1.581 µM
  relative viability: 0.453
XMD13-2 + OSI-027; first compound 5 µM
  relative viability: 0.351
ALW-II-49-7 + Luminespib; first compound 0.08 µM
  relative viability: 1.19
ALW-II-49-7 + Luminespib; first compound 0.253 µM
  relative viability: 0.939
ALW-II-49-7 + Luminespib; first compound 0.8 µM
  relative viability: 1.14
ALW-II-49-7 + Luminespib; first compound 2.53 µM
  relative viability: 0.983
ALW-II-49-7 + Luminespib; first compound 8 µM
  relative viability: 1
